Tests used:
SW1990 cells = test: Anti-tumor effect in mice subcutaneously implanted with human pancreatic cancer cells (SW1990 cells); assay type: in vivo, mouse; settings: BALB/c nu/nu mice, SW1990 subcutaneous, oral 80 mg/kg once every 3 days, 7 doses, vs Vehicle; FIG. 9A
Protocol: In Example 10, TUS-007 was administered to mice subcutaneously implanted with human pancreatic cancer cells (SW1990 cells), and an anti-tumor effect was evaluated.
To the subcutis of T-cell deficient mice (BALB/cAJcl-nu/nu, 4 weeks old, female) (CLEA Japan, Inc.), 0.1 mL of cell suspension in which SW1990 cells were suspended in PBS so as to be 1×10^7 cells/mL was implanted using a 26-gauge injection needle (TERUMO CORPORATION).
Immediately before administration, TUS-007 was dissolved in DMSO, 0.5 mass % carboxymethyl cellulose (Code No. 039-01335, Wako Pure Chemical Industries, Ltd.) solution was added so that the concentration of DMSO became 2.5 vol %, followed by pulverization by ultrasonic treatment to prepare a suspension of TUS-007. When the tumors of mice with subcutaneously implanted SW1990 cells grew to a size of approximately 100 mm^3, the prepared TUS-007 suspension was orally administered by gavage with a gastric tube (Code No. 5202K, Fuchigami Kikai) at a dose of 80 mg/kg body weight once every 3 days for a total of 7 doses (n=6 to 9). As a control (Vehicle), 0.5 mass % carboxymethyl cellulose solution containing 2.5 vol % DMSO was administered in the same manner.
The tumor volume (mm^3) was calculated by measuring the tumor size using a caliper, and using the formula (minor axis diameter)^2×major axis diameter/2.

[1] = target: T1, endogenous wild-type K-Ras protein (Homo sapiens, UniProt P01116); test: Degradation of endogenous wild-type K-Ras protein in HeLa cells, Western blot analysis; assay type: cell-based; settings: 48 hours after addition, vs control (DMSO), FIG. 5
T1 construct: an endogenous wild-type K-Ras protein; endogenous in cells; host or cells: HeLa
T1 sequence (P01116 1-188 isoform P01116-2): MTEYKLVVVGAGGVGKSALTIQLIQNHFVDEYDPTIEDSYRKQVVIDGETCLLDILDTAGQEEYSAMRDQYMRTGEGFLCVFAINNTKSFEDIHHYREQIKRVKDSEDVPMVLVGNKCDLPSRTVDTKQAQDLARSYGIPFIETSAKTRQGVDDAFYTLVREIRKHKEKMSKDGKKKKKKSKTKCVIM
Protocol: In Example 6, degradation (knockdown) of an endogenous wild-type K-Ras protein and wild-type H-Ras protein in HeLa cells to which TUS-007 had been added was evaluated by Western blot analysis.
HeLa cells were seeded in a 24-well plate at a cell density of 8×10^4 cells/well, and then cultured under conditions of 37° C. and 5 vol % CO2 for 16 hours.
After 16 hours from cell seeding, TUS-007 was added to HeLa cells as follows. As a medium, a serum-free medium (37° C.) in which 1 mass % L-glutamine solution (Sigma-Aldrich) was added to D-MEM (high D-glucose, phenol red, sodium pyruvate (Wako Pure Chemical Industries, Ltd.)) was used. It is noted that the L-glutamine solution was added immediately before use. A DMSO solution containing TUS-007 was mixed with the medium so that the concentration of DMSO was 1 vol %, and added to each well at 500 μL/well, and cultured under conditions of 37° C. and 5 vol % CO2. As a control, DMSO was used. […]
After electrophoresis, proteins were transferred to a PVDF membrane (Immobion™-P, Millipore) under conditions of 100 V and 2 hours using a tank-type blotting device and a transfer buffer (25 mM Tris-HCl, 195 mM glycine, 0.01% SDS, 15% methanol). […] Subsequently, the membrane was treated with a chemiluminescence reagent Immobilon™ Western (Millipore), and then chemiluminescence was detected using a lumino image analyzer LAS-3000 (FUJIFILM Corporation). […]

In the case of CCC(C)[C@H](NC(=O)CCCCCCNC(=O)[C@H](CC(C)C)NC(=O)CNC(=O)c1cc(Cl)ccc1Cl)C(=O)Nc1ccc2[nH]c(Cc3c[nH]c4ccccc34)nc2c1 (stereo in doubt) [TUS-007], the “increase of the tumor volume” value (SW1990 cells) is reported as “the increase of the tumor volume was significantly suppressed (p=0.004)” and the “amount of the endogenous wild-type K-Ras protein (Western blot)” value [1] is reported as “the amount of the endogenous wild-type K-Ras protein and wild-type H-Ras protein was reduced”.
